≈ marks a conversion by molar mass, not a printed value. Where two headings read alike, the source gives them in different places.
Columns and labels:
Assay type in all cases: cell-based
Klebsiella pneumoniae = tested on: Klebsiella pneumoniae
Method: (§1) To evaluate the potency and spectrum of the compounds, susceptibility testing was performed against up to nine strains of each of the Gram negative pathogens, Escherichia coli, Pseudomonas aeruginosa, Klebsiella pneumoniae and Acinetobacter baumannii.
(§2) The values in Table 2 are MIC (μg/mL) against strains of E. coli, K. pneumoniae, P. aeruginosa and A. baumanii, including strains which show elevated MICs to Polymyxin.
(§3) The values in Table 2A are MIC (μg/mL).
(§4) The in vitro activity of compounds 26 and C7 (FADDI-02) against resistant bacterial strains was compared. The resistant strains included including Escherichia coli, Pseudomonas aeruginosa, Klebsiella pneumoniae and Acinetobacter baumannii strains. The data is provided in Table 2C, where the strains are identified. The values in Table 2 are MIC (μg/mL).

Escherichia coli = tested on: Escherichia coli
Method: as §1, §2, §3, §4

Acinetobacter baumannii = tested on: Acinetobacter baumannii
Method: as §1, §2, §3, §4

Pseudomonas aeruginosa = tested on: Pseudomonas aeruginosa
Method: as §1, §2, §3, §4

Row | Compound | MIC K. pneumoniae 065 (Klebsiella pneumoniae; strain 065) | MIC E. coli 058 (Escherichia coli; strain 058) | MIC E. coli ATCC 25922 (Escherichia coli; strain ATCC 25922) | MIC A. baumanii ATCC BAA-747 (Acinetobacter baumannii; strain ATCC BAA-747) | MIC P. aeruginosa ATCC 27853 (Pseudomonas aeruginosa; strain ATCC 27853) | MIC K. pneumoniae 062 (Klebsiella pneumoniae) | MIC K. pneumoniae 063 (Klebsiella pneumoniae) | MIC K. pneumoniae 064 (Klebsiella pneumoniae) | MIC K. pneumoniae 065 (Klebsiella pneumoniae) | MIC K. pneumoniae 066 (Klebsiella pneumoniae) | MIC K. pneumoniae 067 (Klebsiella pneumoniae) | MIC K. pneumoniae ATCC 4352 (Klebsiella pneumoniae) | MIC E. coli 058 (Escherichia coli) | MIC E. coli 059 (Escherichia coli) | MIC E. coli 060 (Escherichia coli) | MIC E. coli 061 (Escherichia coli) | MIC E. coli ATCC 25922 (Escherichia coli) | MIC A. baumanii 053 (Acinetobacter baumannii) | MIC A. baumanii 056 (Acinetobacter baumannii) | MIC A. baumanii ATCC BAA-747 (Acinetobacter baumannii) | also measured
1 | 2-Aminomethyl-4- methyl pentanoyl polymyxin L-Thr-L-Dap- polymyxin [D-{4-(4- trifluoromethyl) phenyl} Phe]-6]heptapeptide. Isomer 1 [Example 19] | 16 µg/mL | 16 µg/mL | 1 µg/mL | 1 µg/mL | 2 µg/mL |  |  |  |  |  |  |  |  |  |  |  |  |  |  |  | MIC K. pneumoniae ATCC 4352 (Klebsiella pneumoniae; strain ATCC 4352): 1 µg/mL
2 | CC(C)C[C@@H]1NC(=O)[C@@H](CC2CCCCC2)NC(=O)[C@H](CCN)NC(=O)[C@@H](NC(=O)[C@H](CCN)NC(=O)[C@@H](NC(=O)CC(CN)CC2CCCCC2)[C@@H](C)O)CCNC(=O)[C@H]([C@@H](C)O)NC(=O)[C@H](CCN)NC(=O)[C@H](CCN)NC1=O (single isomer, unassigned) [Example 72, 4-amino-3-(cyclohexylmethyl) butanoyl polymyxin [D-cyclohexylalanine]-6 nonapeptide] | 0.5 µg/mL (≈ 0.435 µM) | 2 µg/mL (≈ 1.74 µM) | 0.25 µg/mL (≈ 0.217 µM) | 0.25 µg/mL (≈ 0.217 µM) | 0.25 µg/mL (≈ 0.217 µM) |  |  |  |  |  |  |  |  |  |  |  |  |  |  |  | MIC K. pneumoniae 063 (Klebsiella pneumoniae; strain 063): 8 µg/mL (≈ 6.95 µM); MIC K. pneumoniae ATCC 13882 (Klebsiella pneumoniae; strain ATCC 13882): 0.25 µg/mL (≈ 0.217 µM); MIC E. coli 061 (Escherichia coli; strain 061): 8 µg/mL (≈ 6.95 µM); MIC E. coli NCTC 9001 (Escherichia coli; strain NCTC 9001): 0.25 µg/mL (≈ 0.217 µM); MIC A. baumanii 053 (Acinetobacter baumannii; strain 053): 64 µg/mL (≈ 55.6 µM); MIC A. baumanii 056 (Acinetobacter baumannii; strain 056): 16 µg/mL (≈ 13.9 µM); MIC A. baumanii NCTC 13424 (Acinetobacter baumannii; strain NCTC 13424): 0.125 µg/mL (≈ 0.109 µM); MIC P. aeruginosa 068 (Pseudomonas aeruginosa; strain 068): 4 µg/mL (≈ 3.48 µM); MIC P. aeruginosa 070 (Pseudomonas aeruginosa; strain 070): 8 µg/mL (≈ 6.95 µM); MIC P. aeruginosa CCUG 59347 (Pseudomonas aeruginosa; strain CCUG 59347): 0.5 µg/mL (≈ 0.435 µM)
3 | CCCCCCCCC1CNCC1C(=O)N[C@H](C(=O)N[C@@H](CCN)C(=O)N[C@H]1CCNC(=O)[C@H]([C@@H](C)O)NC(=O)[C@H](CCN)NC(=O)[C@H](CCN)NC(=O)[C@H](CC(C)C)NC(=O)[C@@H](Cc2ccc(-c3ccccc3)cc2)NC(=O)[C@H](CCN)NC1=O)C(C)O (single isomer, unassigned; isomer 1) [Example 7, trans-4-octylpyrrolidine-3-carbonyl polymyxin [D-(4-phenyl)Phe]-6] nonapeptide. Isomer 1] |  |  |  |  |  | 16 µg/mL (≈ 12.8 µM) | 32 µg/mL (≈ 25.6 µM) | 8 µg/mL (≈ 6.41 µM) | 1 µg/mL (≈ 0.801 µM) | 4 µg/mL (≈ 3.2 µM) | 32 µg/mL (≈ 25.6 µM) | 1 µg/mL (≈ 0.801 µM) | 2 µg/mL (≈ 1.6 µM) | 1 µg/mL (≈ 0.801 µM) | 4 µg/mL (≈ 3.2 µM) | 8 µg/mL (≈ 6.41 µM) | 1 µg/mL (≈ 0.801 µM) | 8 µg/mL (≈ 6.41 µM) | 4 µg/mL (≈ 3.2 µM) | 1 µg/mL (≈ 0.801 µM) | MIC P. aeruginosa 068 (Pseudomonas aeruginosa): 2 µg/mL (≈ 1.6 µM); MIC P. aeruginosa 070 (Pseudomonas aeruginosa): 2 µg/mL (≈ 1.6 µM)
4 | CCCCCCCCC1CNCC1C(=O)N[C@H](C(=O)N[C@@H](CCN)C(=O)N[C@H]1CCNC(=O)[C@H]([C@@H](C)O)NC(=O)[C@H](CCN)NC(=O)[C@H](CCN)NC(=O)[C@H](CC(C)C)NC(=O)[C@@H](Cc2ccccc2-c2ccccc2)NC(=O)[C@H](CCN)NC1=O)C(C)O (single isomer, unassigned; isomer 1) [Example 9, trans-4-octylpyrrolidine-3-carbonyl polymyxin [D-(2-phenyl)Phe]-6] nonapeptide. Isomer 1] |  |  |  |  |  | 64 µg/mL (≈ 51.3 µM) | >64 µg/mL | 64 µg/mL (≈ 51.3 µM) | 8 µg/mL (≈ 6.41 µM) | 32 µg/mL (≈ 25.6 µM) | >64 µg/mL | 0.5 µg/mL (≈ 0.4 µM) | 2 µg/mL (≈ 1.6 µM) | 2 µg/mL (≈ 1.6 µM) | 4 µg/mL (≈ 3.2 µM) | 8 µg/mL (≈ 6.41 µM) | 1 µg/mL (≈ 0.801 µM) | 64 µg/mL (≈ 51.3 µM) | 32 µg/mL (≈ 25.6 µM) | 1 µg/mL (≈ 0.801 µM) | MIC P. aeruginosa 068 (Pseudomonas aeruginosa): 2 µg/mL (≈ 1.6 µM); MIC P. aeruginosa 070 (Pseudomonas aeruginosa): 2 µg/mL (≈ 1.6 µM); MIC P. aeruginosa ATCC 27853 (Pseudomonas aeruginosa): 1 µg/mL (≈ 0.801 µM)

From patent US12146004B2, “Polymyxin compounds and uses thereof” (priority 2014, dated 2024)
